Among the data in PubChem BioAssay AID179 (DTP/NCI, 2004) are EC50, IC50 and outcome values, retold here.

Calls of active or inactive are those of the source.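 Rule for the calls: active = compounds giving half or more protection of infected cells from virus-caused growth loss, again on retest; inactive = the rest.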 Where a SMILES comes first, the peptide text is derived from it. [ ]: non-standard residue; d: D form. The star is where a group is joined. Iva = CC[C](C)(N)C(=O)O; Boc = CC(C)(C)OC(=O)*; X8 = C1CCC(=NO*)C1

The subject of the experiment is CEM cells HIV-1 protection, formazan growth assay. Briefly: NCI AIDS Antiviral Assay. To be noted: for IC50: measured here: growth of uninfected CEM cells. The essentials:
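Screen of anti-HIV-1 activity in human CEM cells using a formazan-based growth measurement at five drug concentrations. Hits with 50% or greater protection were repeated, and confirmation required reproducible complete protection.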

With `O=C1C2=C(c3ccccc31)C(c1ccccc1Cl)N1C(=O)CCSC1=N2` (stereo not drawn), the EC50 was > 26.3 µM and the IC50 was > 26.3 µM. In the case of `COC1=CC2OC3OC(=O)CC3C2C(OCc2ccccc2)=C1` (stereo not drawn), the EC50 was > 31.6 µM and the IC50 is > 31.6 µM. In the case of `N=C1C(=N)c2ccccc2-c2ccccc21.[Cl-].[Rh+3].c1cnc2c(c1)ccc1cccnc12.c1cnc2c(c1)ccc1cccnc12`, the outcome was inactive. For `Cc1ccc([P+](Cc2ccccc2)(c2ccccc2)c2ccc(C)cc2)cc1`, the EC50 was > 200 µM and the IC50 is 0.741 µM. On the same counts, the results for `CC(=O)OC1C[C@@H](C)C2(C[C@H](O)c3ccoc3)C(=O)OC[C@]13C2CCC(O)C31CO1` (stereo partly drawn) are > 200 µM and > 200 µM. On the same counts, the results for `O=C1C2C3C4C1C1C2[C@H](OCc2ccccc2)C3C1[C@H]4OCc1ccccc1` (stereo partly drawn) are > 200 µM and 42.7 µM. On the same counts, the results for `Cn1c(=S)[nH]c2c(Cl)cc(Cl)cc2c1=O` are > 200 µM and 138 µM. Turning to `NC(=Nc1ccc(S(=O)(=O)Nc2cnc3ccccc3n2)cc1)/N=C(/N)Nc1ccc(Br)cc1`, the EC50 is > 87.1 µM and the IC50 was > 87.1 µM. Consider `CC(=O)c1sc(/N=C\c2c(O)c3ccccc3oc2=O)nc1C`, for which the EC50 was > 200 µM and the IC50 was 38.9 µM.

Consider `c1ccc2c(OCCSCCCCCCCCCCSCCOc3cccc4ccccc34)cccc2c1`, for which the EC50 is > 5.01 µM and the IC50 is > 5.01 µM.

Consider `CC1(C)O[C@@H]2C[C@H]3[C@@H]4C[C@H](F)C5=CC(=O)C=C[C@]5(C)[C@@]4(F)[C@@H](O)C[C@]3(C)[C@]2(C(=O)CO)O1`, for which the EC50 is > 2 µM and the IC50 was determined as 0.00741 µM.

As for `O=C(O)CCC1(Br)CCCCC(Br)C1=O` (stereo not drawn), the EC50 was > 724 µM and the IC50 came to 245 µM. On the same counts, the results for `CCOC(=O)[C@@H]1ON2O[C@@H](OC3CCCC3(c3ccccc3)c3ccccc3)C[C@H]3OC(=O)[C@@H]1C32` (stereo partly drawn) are > 200 µM and 34.7 µM. On the same counts, the results for `O=C(c1ccc(Br)cc1)n1c2ccc(Br)cc2c2nc3ccccc3nc21` are > 50.1 µM and > 50.1 µM. Take `O=C1Cc2c([nH]c3ccccc23)-c2ccccc2N1`: the EC50 was > 105 µM and the IC50 worked out at 69.2 µM. On the same counts, the results for `COC(=O)[C@@H]1CCCN1CCN1CCC[C@H]1C(=O)OC` are > 200 µM and > 200 µM. On the same counts, the results for `CCCCCCCCCCCCCCCCSS(=O)(=O)c1ccc(C)cc1` are > 31.6 µM and > 31.6 µM. On the same counts, the results for `O=C1OC[C@@H]2CCCN2Cc2ccccc21` are > 87.1 µM and > 87.1 µM. Regarding `CO/C(=N\N=C\c1ccc(C(F)(F)F)cc1)c1ccncc1`, the EC50 was > 117 µM and the concentration for half-maximal inhibition (IC50) turned out to be 69.2 µM. On the same counts, the results for `C/C(CC(=O)N(C(C)C)C(C)C)=N\NC(=O)c1ccncc1` are > 61.7 µM and > 61.7 µM. On the same counts, the results for `CC(C)N([P-]C(=O)[P-]N(C(C)C)C(C)C)C(C)C.[C-]#[O+].[C-]#[O+].[C-]#[O+].[C-]#[O+].[C-]#[O+].[C-]#[O+].[Fe].[Fe]` (stereo not drawn) are > 3.55 µM and > 3.55 µM. Turning to `O=C(O)C1CCCN1C(=O)c1cc(Cl)ccn1` (stereo not drawn), the EC50 is > 200 µM and the IC50 was > 200 µM. As for `OC[C@@H]1CC#C/C=C\C#CC[C@@H]1CO`, the outcome was inactive. Same read-out and setting: for `O=NNc1ccc(S(=O)(=O)c2ccc(NN=O)cc2)cc1` the value was “inactive”. For `COc1ccc2nc3cccc([N+](=O)[O-])c3c(NCCCO)c2c1`, the EC50 is > 2 µM and the IC50 was found to be 0.017 µM.

For the molecule `COC1=C(C)C(=O)C(=O)c2ccccc21`, the outcome was inactive.

On to `COc1ccc(C2=Nc3ccccc3SC(C)C2)cc1` (stereo not drawn), for which the EC50 was > 13.2 µM and the IC50 is > 13.2 µM. `O=C(Nc1ccc(S(=O)(=O)/N=c2\ncccn2C(=O)C(C(F)(F)F)C(F)(F)F)cc1)C(C(F)(F)F)C(F)(F)F`: the EC50 was > 200 µM and the IC50 was > 200 µM. As to `CC(C)(C)OC(=O)[C@H]1CCC(=S)N1Cc1ccccc1`, the EC50 is > 200 µM and the IC50 was > 200 µM.

`Clc1cc2nc[nH]c2cc1Cl`: the EC50 was > 269 µM and the IC50 was 141 µM. Consider `O=C(c1ccco1)[N+]1=Cc2[nH]c3ccccc3c2CC1`, for which the EC50 is > 170 µM and the 50% inhibitory concentration (IC50) stood at 97.7 µM. On the same counts, the results for `c1ccc(C2=C(c3ccccc3)Sc3nnc(CCCCCCCCc4nnc5n4NC(c4ccccc4)=C(c4ccccc4)S5)n3N2)cc1` are > 200 µM and 89.1 µM. On the same counts, the results for `COc1cccc(CCCNC(=O)Cc2ccccc2CO)c1` are > 200 µM and > 200 µM. On the same counts, the results for `c1ccc(N=C(N2CCCCC2)N(CCN2CCCCC2)c2ccccc2)cc1` are > 200 µM and 1.82 µM. `CC1(C)CCCCCCC2OC2CCCCCC(C)(C)C1=O` (stereo not drawn): the EC50 is > 200 µM and the IC50 turned out to be 38 µM. On to `O=C1C=C(C2CCCO2)C(=O)c2c(O)ccc(O)c21` (stereo not drawn), for which the result was inactive. With `Cc1cccc(NC(=S)Nc2cccc(Cl)c2)n1`, the EC50 was > 200 µM and the IC50 is > 200 µM.

On to `CN(C)c1ccc(/C=C(\C#N)C(N)=C(C#N)C#N)cc1`, for which the EC50 is 132 µM and the IC50 was > 200 µM.

`O=C1C=CC(=O)c2c(-c3ccccc3[N+](=O)[O-])cc(Cl)nc21`: the result was inactive. Turning to `O=C1CSC(=S)N1c1ccc2c(c1)OCO2`, the EC50 is > 200 µM and the IC50 amounted to 79.4 µM. On the same counts, the results for `CCOC(=O)c1ccc(Nc2cnc3ccc(C(F)(F)F)cc3n2)cc1` are > 200 µM and 10.7 µM. On the same counts, the results for `CCC(C)(NC(=O)C(C)NC(=O)OC(C)(C)C)C(=O)NC(C)C(=O)NC(C)(CC)C(=O)ON=C1CCCC1` (stereo not drawn) (Boc-A[Iva]A[Iva]-X8; configuration not given here) are > 200 µM and 83.2 µM.

`O=C(Cc1nc2c3c(ccc2[nH]c1=O)C(=O)c1ccccc1C3=O)C(=O)Nc1ccccc1[N+](=O)[O-]`: the EC50 is > 38.9 µM and the IC50 came to 10 µM.

Consider `Cn1c(=O)c2c(nc(C[N+]3([O-])CCOCC3)n2C)n(C)c1=O`, for which the EC50 is > 83.2 µM and the IC50 is > 83.2 µM. For `COc1ccc(C(=O)/C=C/c2ccc(OCC#N)cc2)cc1`, the EC50 was > 200 µM and the IC50 came out at 15.8 µM. As for `CN1CNC2C(=O)CCC2c2ccccc21` (stereo not drawn), the EC50 was > 1150 µM and the IC50 amounted to 676 µM. With `CC(C)CCCC(C)[C@H]1CC[C@@H]2[C@H]3CC[C@H]4C[C@@H](CCC=C(c5cc(Cl)c(OCc6cccc([N+](=O)[O-])c6)c(C(=O)O)c5)c5cc(Cl)c(OCc6cccc([N+](=O)[O-])c6)c(C(=O)O)c5)CC[C@]4(C)[C@@H]3CC[C@]12C` (stereo partly drawn), the EC50 was > 200 µM and the IC50 was > 200 µM. Regarding `CCOC(=O)C1N(S(=O)(=O)c2ccc(C)cc2)CCC12c1ccccc1N(C(C)=O)C2c1ccc(OC)c(OC)c1` (stereo not drawn), the outcome was inactive. For the molecule `COc1cc(C2C(Cl)C(=O)N2n2cnc3ccccc3c2=O)ccc1O` (stereo not drawn), the EC50 is > 676 µM and the IC50 came out at 30.2 µM.

Consider `CC(NNC(=O)c1ccncc1)c1ccc(F)cc1` (stereo not drawn), for which the EC50 was > 200 µM and the IC50 stood at 12.3 µM.

The term EC50 denotes the concentration at which the effect is half-maximal. As usually defined, the IC50 is the concentration at which inhibition is half-maximal. Lower therefore signals greater potency.
